Experimental data: patent publication US9296776B2, “Substituted nucleoside derivatives with antiviral and antimicrobial properties” (Eastern Virginia Medical School, priority 2007, dated 2016)
pEC50: −log10 of the molar value. Values after ≈ are worked out from the molar mass of the structure shown. Each block holds one compound with its values, some of them ahead of it.

Legend:
Type in all cases: cell-based
[1] = tested on: Cell-associated HIV-1, SupT1 (IIIB); assay: Single-round infection assay, cell-associated virus SupT1 (IIIB); conditions: for IC50 Cell-Associated Virus SupT1 (IIIB) / IC50: Table 1, 2 h incubation, wash, 48 h culture; for IC50: Human immunodeficiency virus 1, IIIB, SUP-T1, read-out: IC50 Cell-Associated Virus SupT1 (IIIB)
[2] = tested on: HIV-1 IIIB (cell-free virus); assay: microbe, parasite or virus in culture; conditions: for IC50 Cell-Free Virus IIIB / IC50: Table 1; for IC50 Cell-Free Virus IIIB / IC50 / EC50 Cell-free HIV-1 (IIIB) / pEC50: 2 h incubation, wash, 48 h culture; for IC50: Human immunodeficiency virus 1, IIIB, read-out: IC50 Cell-Free Virus IIIB; for EC50 Cell-free HIV-1 (IIIB) / pEC50: Table 8; for pEC50: read-out: EC50 Cell-free HIV-1 (IIIB)
[3] = tested on: HIV-1 BaL (cell-free virus); assay: Single-round infection assay, cell-free virus BaL; conditions: for IC50 Cell-Free Virus BaL / IC50: Table 1, 2 h incubation, wash, 48 h culture; for IC50: Human immunodeficiency virus 1, BAL, read-out: IC50 Cell-Free Virus BaL

IC50 Cell-Associated Virus SupT1 (IIIB) [1]: 6.6 µg/mL (≈ 14.6 µM)
IC50 Cell-Free Virus IIIB [2]: 13.3 µg/mL (≈ 29.4 µM)
IC50 Cell-Free Virus BaL [3]: 1.7 µg/mL (≈ 3.76 µM)
Compound: [N-]=[N+]=NCCCCCCCCCCCC(=O)Nc1ccn([C@H]2CS[C@@H](CO)O2)c(=O)n1 [N4-(12-azidodecanoyl)-2′,3′-dideoxy-3′-thiacytidine]

IC50 Cell-Associated Virus SupT1 (IIIB) [1]: >100 µg/mL
IC50 Cell-Free Virus IIIB [2]: >100 µg/mL
IC50 Cell-Free Virus BaL [3]: 49.1 µg/mL (≈ 72.6 µM)
Compound: [N-]=[N+]=NCCCCCCCCCCCC(=O)Nc1ccn(C2CSC(COC(=O)CCCCCCCCCCCN=[N+]=[N-])O2)c(=O)n1 (stereo not drawn) [N4, 5′-O-di(12-azidodecanoyl)-2′,3′-dideoxy-3′-thiacytidine]

IC50 [1]: > 100 µg/mL
IC50 [2]: 0.88 µg/mL (≈ 1.94 µM)
IC50 [3]: 0.08 µg/mL (≈ 0.177 µM)
Compound: [N-]=[N+]=NCCCCCCCCCCCC(=O)OC[C@H]1O[C@@H](n2ccc(N)nc2=O)CS1 [5′-O-(12-azidododecanoyl)-2′,3′-dideoxy-3′-thiacytidine]

EC50 Cell-free HIV-1 (IIIB) [2]: 7.8 µg/mL (≈ 12 µM)
pEC50 [2]: 4.92
Compound: CC(=O)NC(CCC(=O)OC[C@H]1O[C@@H](n2cc(C)c(=O)[nH]c2=O)C[C@@H]1N=[N+]=[N-])C(=O)OC[C@@H]1O[C@H](n2ccc(N)nc2=O)CS1 (stereo partly drawn) [KPH-911, AZT(Glutamyl)-3TC]

IC50 Cell-Associated Virus SupT1 (IIIB) [1]: >100 µg/mL
IC50 Cell-Free Virus IIIB [2]: 34 µg/mL (≈ 78.2 µM)
IC50 Cell-Free Virus BaL [3]: 5.4 µg/mL (≈ 12.4 µM)
Compound: CCCCCCCCCCCCCC(=O)OC[C@@H]1C=C[C@H](n2cc(C)c(=O)[nH]c2=O)O1 [5′-O-myristoyl-2′,3′-didehydro-2′,3′-dideoxythymidine]

EC50 Cell-free HIV-1 (IIIB) [2]: 2.0 µg/mL (≈ 2.4 µM)
pEC50 [2]: 5.62
Compound: CCCCCCCCCCCCCC(=O)NC(CCC(=O)OC[C@H]1O[C@@H](n2cc(C)c(=O)[nH]c2=O)C[C@@H]1F)C(=O)OC[C@H]1O[C@@H](n2cc(C)c(=O)[nH]c2=O)C[C@@H]1N=[N+]=[N-] (stereo partly drawn) [KPH-99]

EC50 Cell-free HIV-1 (IIIB) [2]: 10.7 µg/mL (≈ 17.1 µM)
pEC50 [2]: 4.77
Compound: CC(=O)NC(CCC(=O)OC[C@H]1O[C@@H](n2cc(C)c(=O)[nH]c2=O)C[C@@H]1F)C(=O)OC[C@@H]1O[C@H](n2ccc(N)nc2=O)CS1 (stereo partly drawn) [KPH-96, FLT(Glutamyl)-3TC]

IC50 [1]: 2.4 µg/mL (≈ 4.9 µM)
IC50 [2]: 0.024 µg/mL (≈ 0.049 µM)
IC50 [3]: 0.02 µg/mL (≈ 0.0408 µM)
Compound: CCSCCCCCCCCCCCC(=O)OC[C@H]1O[C@@H](n2cc(F)c(N)nc2=O)CS1 [5′-O-(13-thiapentadecanoyl)-2′,3′-dideoxy-5-fluoro-3′-thiacytidine]

IC50 [1]: > 100 µg/mL
IC50 [2]: 1.1 µg/mL (≈ 2.33 µM)
IC50 [3]: < 0.1 µg/mL
Compound: CCSCCCCCCCCCCCC(=O)OC[C@H]1O[C@@H](n2ccc(N)nc2=O)CS1 [5′-O-(13-thiapentadecanoyl)-2′,3′-dideoxy-3′-thiacytidine]

IC50 Cell-Associated Virus SupT1 (IIIB) [1]: 21.7 µg/mL (≈ 42.7 µM)
IC50 Cell-Free Virus IIIB [2]: 6.7 µg/mL (≈ 13.2 µM)
IC50 Cell-Free Virus BaL [3]: 2.7 µg/mL (≈ 5.32 µM)
Compound: Cc1cn(C2C=CC(COC(=O)CCCCCCCCCCCSCCN=[N+]=[N-])O2)c(=O)[nH]c1=O (stereo not drawn) [5′-O-(12-thioethylazidodecanoyl)-2′,3′-didehydro-2′,3′-dideoxythymidine]

Further lines, the compound ahead of its results:

Compound: CCSCCCCCCCCCCC(=O)OC[C@H]1O[C@@H](n2cc(C)c(=O)[nH]c2=O)C[C@@H]1N=[N+]=[N-] [3′-azido-2′,3′-dideoxy-5′-O-(11-thioethylundecanoyl)thymidine]
IC50 Cell-Associated Virus SupT1 (IIIB) [1]: 44.9 µg/mL (≈ 90.6 µM)
IC50 Cell-Free Virus IIIB [2]: 3.8 µg/mL (≈ 7.67 µM)
IC50 Cell-Free Virus BaL [3]: 2.6 µg/mL (≈ 5.25 µM)

Compound: Sodium cellulose sulfate-succinate-AZT (17.2%) [CS-Suc-AZT]
EC50 Cell-Associated Virus SupT1-IIIB ([1]; Table 4): 74.8 µg/mL
EC50 Cell-Free Virus IIIB ([2]; Table 4): 2.2 µg/mL
EC50 Cell-Free Virus BaL ([3]; Table 4): 9.9 µg/mL

Compound: Cc1cn([C@H]2C=C[C@@H](COC(=O)CCCCCCCCCCCN=[N+]=[N-])O2)c(=O)[nH]c1=O [5′-O-(12-azidodecanoyl)-2′,3′-didehydro-2′,3′-dideoxythymidine]
IC50 Cell-Associated Virus SupT1 (IIIB) [1]: 10.0 µg/mL (≈ 22.3 µM)
IC50 Cell-Free Virus IIIB [2]: 3.0 µg/mL (≈ 6.7 µM)
IC50 Cell-Free Virus BaL [3]: 1.4 µg/mL (≈ 3.13 µM)

Compound: Suramin-3′-azido-2′,3′-dideoxythymidine [Suramin-AZT]
EC50 Cell-Free Virus IIIB ([2]; Table 6): 19.4 µg/mL
EC50 Cell-Free Virus BaL ([3]; Table 6): 7.3 µg/mL

Compound: Cc1cn([C@H]2C[C@H](F)[C@@H](COC(=O)CCCCCCCCCCCN)O2)c(=O)[nH]c1=O [3′-fluoro-2′,3′-dideoxy-5′-O-(12-aminododecanoyl)thymidine]
IC50 Cell-Free Virus IIIB [2]: 0.67 µg/mL (≈ 1.52 µM)

Compound: CCCCCCCCCCCCCCC(=O)OC[C@H]1O[C@@H](n2cc(C)c(=O)[nH]c2=O)C[C@@H]1N=[N+]=[N-] [3′-azido-2′,3′-dideoxy-5′-O-(pentadecanoyl)thymidine]
IC50 Cell-Associated Virus SupT1 (IIIB) [1]: >100 µg/mL
IC50 Cell-Free Virus IIIB [2]: 8.8 µg/mL (≈ 17.9 µM)
IC50 Cell-Free Virus BaL [3]: 2.2 µg/mL (≈ 4.47 µM)

Compound: Nc1nc(=O)n([C@H]2CS[C@@H](CO)O2)cc1F [2′,3′-dideoxy-5-fluoro-3′-thiacytidine, reference compound]
IC50 [1]: 21.9 µg/mL (≈ 88.6 µM)
IC50 [2]: 0.48 µg/mL (≈ 1.94 µM)
IC50 [3]: 0.18 µg/mL (≈ 0.728 µM)
